In the test the target is T1, LiEndoG (rLiEndoG) (Leishmania infantum, UniProt B0ZTD3).
T1 construct: gene endog; recombinant from pRSET-LiendoG in E. coli BL21(DE3) pLys
T1 sequence (B0ZTD3 1-510): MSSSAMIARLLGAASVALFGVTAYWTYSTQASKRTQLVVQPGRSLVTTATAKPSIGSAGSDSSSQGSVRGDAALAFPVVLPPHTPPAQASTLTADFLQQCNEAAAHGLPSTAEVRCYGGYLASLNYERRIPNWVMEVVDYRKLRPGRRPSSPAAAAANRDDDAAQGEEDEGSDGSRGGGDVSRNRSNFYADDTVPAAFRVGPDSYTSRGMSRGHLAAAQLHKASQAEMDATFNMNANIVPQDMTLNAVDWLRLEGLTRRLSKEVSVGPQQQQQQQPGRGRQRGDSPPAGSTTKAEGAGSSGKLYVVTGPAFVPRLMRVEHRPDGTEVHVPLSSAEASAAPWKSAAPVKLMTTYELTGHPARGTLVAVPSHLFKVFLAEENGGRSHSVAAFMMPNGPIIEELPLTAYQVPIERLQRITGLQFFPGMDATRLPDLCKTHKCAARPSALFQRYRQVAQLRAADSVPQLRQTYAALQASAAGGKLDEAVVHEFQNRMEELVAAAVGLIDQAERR
The test is described as follows: fluorescence nuclease assay, FAM/TAMRA double-stranded oligonucleotide probe. The format is biochemical. To be noted: inhibitor; 30 pmol probe, 2.5 ng/mL LiEndoG, 40 min; increasing Lei49.

The structures appear in SMILES notation.

In the case of `Cc1cn([C@H]2C[C@H](OC(=O)CCC(=O)OCCOC(=O)[C@@H](N)C(C)C)[C@@H](COC(c3ccccc3)(c3ccccc3)c3ccccc3)O2)c(=O)[nH]c1=O` [Lei49, 2-[(S)-2-Amino-3-methylbutanoyl-oxy]ethyl [(2R,3S,5R)-5-(thymin-1-yl)-2-(trityloximethyl)tetrahydrofuran-3-yl] succinate], the “fluorescence nuclease assay, FAM/TAMRA double-stranded oligonucleotide probe” value is “Inhibition of the nuclease activity of LiEndoG by Lei49”.

These data come from PMC3971528, “Leishmania infantum EndoG Is an Endo/Exo-Nuclease Essential for Parasite Survival” (PLoS ONE, 2014).
